From patent US9554573B2, “Binary insecticidal or pesticidal mixture” (BAYER CROPSCIENCE AKTIENGESELLSCHAFT, priority 2013, dated 2017)

Key:
Phaedon cochleariae = Phaedon cochleariae spray test (Chinese cabbage leaf disks); assay type: in vivo; conditions: foliar, 144 h, after 6 d, read-out: Efficacy in % after 6 d (mortality)
Procedure: Solvent: 78.0 parts by weight of acetone
• 1.5 parts by weight of dimethylformamide Emulsifier: 0.5 parts by weight of alkylaryl polyglycolether
To produce a suitable preparation of active compound, 1 part by weight of active compound is mixed with the stated amount of solvent and emulsifier, and the concentrate is diluted with emulsifier—containing water to the desired concentration. To produce a suitable preparation of a spore suspension the spores are diluted with emulsifier—containing water to the desired concentration.
Chinese cabbage (Brassica pekinensis) leaf-disks are sprayed with a preparation of the active ingredient of the desired concentration. Once dry, the leaf disks are infested with mustard beetle larvae (Phaedon cochleariae).
After the specified period of time, mortality in % is determined. 100% means all beetle larvae have been killed and 0% means none of the beetle larvae have been killed. The mortality values determined thus are recalculated using the Colby-formula (see sheet 1).

Spodoptera frugiperda = Spodoptera frugiperda spray test (maize leaf sections); assay type: in vivo; conditions: 144 h, after 6 d, read-out: Efficacy in % after 6 d (mortality)
Procedure: Solvent: 78.0 parts by weight acetone
• 1.5 parts by weight dimethylformamide Emulsifier: 0.5 parts by weight alkylarylpolyglycolether
To produce a suitable preparation of the active compound, 1 part by weight of active compound is mixed with the stated amount of solvent and emulsifier, and the concentrate is diluted with emulsifier-containing water to the desired concentration. To produce a suitable preparation of a spore suspension the spores are diluted with emulsifier—containing water to the desired concentration.
Maize (Zea mais) leaf sections are sprayed with a preparation of the active ingredient of the desired concentration. Once dry, the leaf sections are infested with fall armyworm larvae (Spodoptera frugiperda).
After the specified period of time, mortality in % is determined. 100% means all caterpillars have been killed and 0% means none of the caterpillars have been killed. The mortality values determined thus are recalculated using the Colby-formula (see sheet 1).

In the case of `Cc1cc(C(F)(C(F)(F)F)C(F)(F)F)ccc1NC(=O)c1cccc(Cl)c1C(=O)NC(C)(C)C#N` [(I-5)], the mortality at 2.5 g/ha (Phaedon cochleariae; 2.5 g ai/ha) is reported as 0%, the mortality at 12 g/ha (Phaedon cochleariae; 12 g ai/ha) is reported as 0% and the mortality at 0.25 g/ha (Spodoptera frugiperda; 0.25 g ai/ha) is reported as 0%. For the same compound, the mortality at 0.8 g/ha (Spodoptera frugiperda; 0.8 g ai/ha) was 33% and the mortality at 3 g/ha (Spodoptera frugiperda; 3 g ai/ha) was 33%.
